Data as given in the supplement of paper PMC4862054.

Key:
CAL-120 [1] = assay: drug sensitivity score (DSS), CellTox Green (DSS (AUC-based score)); higher = stronger drug effect (viability inhibition or cytotoxicity); extreme values may be limits of the assay; details: incubation time: 72 h
Summary of the method: (§1)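 Breast cancer cell lines, seeded as 20 µl suspension, were incubated 72 h with compound in 384-well plates at 5 concentrations in 10-fold steps over a 10,000-fold range set for each compound. Fluorescence from CellTox Green was read at 485/520 nm before CellTiter-Glo luminescence, which was read after 10 min at room temperature. Every plate was normalised to 0.1 % DMSO and a positive kill control, and the drug sensitivity score was taken from the area under the fitted dose-response curve.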

MCF-10A = assay: as above; details: incubation time: 72 h
Summary of the method: as §1

HDQ-P1 [2] = assay: as above; details: incubation time: 72 h
Summary of the method: as §1

HCC1599 [3] = assay: as above; details: incubation time: 72 h
Summary of the method: as §1

HCC1937 [4] = assay: as above; details: incubation time: 72 h
Summary of the method: as §1

BT-474 [5] = assay: as above; details: incubation time: 72 h
Summary of the method: as §1

MDA-MB-436 = assay: normalised viability (% of control), CellTiter-Blue; higher = more viable cells (100 = DMSO, 0 = benzethonium chloride kill control); details: 1 nM; incubation time: 72 h
Protocol: (§2)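 DSRT, CellTiter-Blue viability, 72 h incubation. Signal is normalised to DMSO and benzethonium chloride controls. Value is the normalised response at dose 1.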

MFM-223 = assay: as above; details: 1 nM; incubation time: 72 h
Protocol: as §2

DU-4475 [6] = assay: as above; details: 1 nM; incubation time: 72 h
Protocol: as §2

CAL-120 [7] = assay: as above; details: 1 nM; incubation time: 72 h
Protocol: as §2

MDA-MB-453 = assay: as above; details: 1 nM; incubation time: 72 h
Protocol: as §2

HDQ-P1 [8] = assay: as above; details: 1 nM; incubation time: 72 h
Protocol: as §2

MDA-MB-231 = assay: as above; details: 1 nM; incubation time: 72 h
Protocol: as §2

MDA-MB-468 = assay: as above; details: 1 nM; incubation time: 72 h
Protocol: as §2

CAL-85-1 [9] = assay: as above; details: 1 nM; incubation time: 72 h
Protocol: as §2

CAL-51 = assay: as above; details: 1 nM; incubation time: 72 h
Protocol: as §2

BT-549 = assay: as above; details: 1 nM; incubation time: 72 h
Protocol: as §2

HCC1599 [10] = assay: as above; details: 1 nM; incubation time: 72 h
Protocol: as §2

CAL-148 [11] = assay: as above; details: 1 nM; incubation time: 72 h
Protocol: as §2

Hs578T = assay: as above; details: 1 nM; incubation time: 72 h
Protocol: as §2

SK-BR-3 = assay: as above; details: 1 nM; incubation time: 72 h
Protocol: as §2

HCC1937 [12] = assay: as above; details: 1 nM; incubation time: 72 h
Protocol: as §2

HCC1143 = assay: as above; details: 1 nM; incubation time: 72 h
Protocol: as §2

BT-474 [13] = assay: as above; details: 1 nM; incubation time: 72 h
Protocol: as §2

DU-4475 [14] = assay: normalised viability (% of control), CellTiter-Blue; higher = more viable cells (about 100 = DMSO control); details: 10000 nM; incubation time: 72 h
Protocol: (§3)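 DSRT, CellTiter-Blue viability, 72 h incubation. Signal is normalised to DMSO and benzethonium chloride controls. Value is the normalised response at dose 9.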

HDQ-P1 [15] = assay: as above; details: 10000 nM; incubation time: 72 h
Protocol: as §3

CAL-85-1 [16] = assay: as above; details: 10000 nM; incubation time: 72 h
Protocol: as §3

CAL-148 [17] = assay: as above; details: 10000 nM; incubation time: 72 h
Protocol: as §3

SMILES | drug sensitivity score (CAL-120 [1]) | drug sensitivity score (MCF-10A) | drug sensitivity score (HDQ-P1 [2]) | drug sensitivity score (HCC1599 [3]) | drug sensitivity score (HCC1937 [4]) | drug sensitivity score (BT-474 [5]) | normalised viability (MDA-MB-436) | normalised viability (MFM-223) | normalised viability (DU-4475 [6]) | normalised viability (CAL-120 [7]) | normalised viability (MDA-MB-453) | normalised viability (HDQ-P1 [8]) | normalised viability (MDA-MB-231) | normalised viability (MDA-MB-468) | normalised viability (CAL-85-1 [9]) | normalised viability (CAL-51) | normalised viability (BT-549) | normalised viability (HCC1599 [10]) | normalised viability (CAL-148 [11]) | normalised viability (Hs578T) | normalised viability (SK-BR-3) | normalised viability (HCC1937 [12]) | normalised viability (HCC1143) | normalised viability (BT-474 [13]) | normalised viability (DU-4475 [14]) | normalised viability (HDQ-P1 [15]) | normalised viability (CAL-85-1 [16]) | normalised viability (CAL-148 [17])
CCCCCCCCc1ccc(CCC(N)(CO)CO)cc1 [Fingolimod] | 0.861 | 11.1 | 2.47 | 0 | 17.9 | 5.23 | 113% | 94% | 122% | 82.3% | 94% | 130% | 95.6% | 106% | 85.8% | 117% | 106% | 105% | 96.8% | 97.6% | 102% | 96.5% | 92.5% | 97.7% | 136% | 0.67% | 4.87% | 62.2%
O=C(O)CCCc1ccc(N(CCCl)CCCl)cc1 [Chlorambucil] | 0 | 0 | 0 | 0 | 0 | 0 | 105% | 94.3% | 102% | 96.6% | 109% | 111% | 106% | 95.2% | 97.4% | 111% | 96.7% | 117% | 113% | 99.4% | 101% | 97.6% | 105% | 89.7% | 90.9% | 115% | 98% | 89.7%
Cn1cncc1[C@@](N)(c1ccc(Cl)cc1)c1ccc2c(c1)c(-c1cccc(Cl)c1)cc(=O)n2C [Tipifarnib] | 0 | 0 | 0 | 0 | 0 | 0 | 98.5% | 87.6% | 104% | 78% | 94.7% | 105% | 98.8% | 105% | 81.1% | 98.4% | 120% | 90.4% | 102% | 93.2% | 92.5% | 89% | 85.6% | 92.1% | 15.7% | 49.6% | 47.2% | 26.7%
CN(C)C[C@@H]1CCn2cc(c3ccccc32)C2=C(C(=O)NC2=O)c2cn(c3ccccc23)CCO1 [Ruboxistaurin] | 0.954 | 0 | 2.84 | 0 | 1.71 | 17.2 | 101% | 104% | 97% | 120% | 98.5% | 70.7% | 92.5% | 96.8% | 106% | 98.9% | 91.4% | 120% | 126% | 94.8% | 99.3% | 106% | 127% | 118% | 1.01% | 22.5% | 84.3% | 24.3%
